The source of these data is the NIST ThermoML archive (doi:10.1016/j.tca.2018.02.007).

± gives the expanded uncertainty stated by the source.

Data set [1] in a line: Molar enthalpy of transition or fusion. Particulars: DSC.
The conditions of data set [2]: for thermal conductivity: 101.33 kPa, T-histrory method; for Triple point temperature: DSC.

With `OCC(CO)(CO)CO` [2,2-bis(hydroxymethyl)-1,3-propanediol], the “Molar enthalpy of transition or fusion” value in data set [1] (Crystal 1) came out at 5.85 ± 0.27 kJ/mol; in data set [1] (Crystal 2) it was 35.9 ± 1.6 kJ/mol. Besides, the thermal conductivity in data set [2] (340.65 K, Crystal 2) worked out at 0.112 ± 0.007 W/m/K; in data set [2] (395.65 K, Crystal 2), 0.108 ± 0.007 W/m/K; in data set [2] (450.65 K, Crystal 2) it was 0.104 ± 0.006 W/m/K. For the same compound, the results for the Triple point temperature in data set [2] (Crystal 1) and in data set [2] (Crystal 2) were 531.25 ± 0.8 K and 454.55 ± 0.8 K, respectively.
